Data on one molecule can be found in patent US20140134140A1, “MESENCHYMAL STEM CELL COMPOSITIONS FOR THE TREATMENT OF MICROBIAL INFECTIONS” (Case Western Reserve University, priority 2012, published 2014).

The target in assay [1] is T1, CFTR (Mus musculus, UniProt P26361).
T1 construct: BMC9 cells have 0.36±0.14% Cftr expression; endogenous in cells; host or cells: BMC9 immortal mouse MSC clone
The experiment in a line: LL-37 secretion by BMC9 cells with CFTR inhibition. Type of assay: cell-based. As to conditions: 10 μg/ml, 48 hours; Mean±SEM, n=3. On the procedure:
(§1) To determine if CF MSCs express CFTR to validate the I-172 studies, we took advantage of an immortal mouse derived MSC clone BMC9, especially since we have a highly reproducible mouse Cftr gene expression assay in our CF animal CORE center. These cells are abundant and have s a MSC phenotype when grown at 37° C. […] The sensitivity and specificity of our Cftr expression assay is 40±2 Ct. If we had used a lower expressing tissue, the % of Cftr levels would be higher. BMC9 cells cultured with I-172 (10 μg/ml, for 48 hours) secreted 37±13% (Mean±SEM, n=3) less LL-37 than BMC9 cells not cultured with I-172 (P≦0.05). […] Our future studies are aimed at studying the differences between and Cftr deficient MSCs and control MSCs.

Assay [2] addresses T2, CFTR (Homo sapiens, UniProt P13569).
T2 construct: endogenous in cells; host or cells: human mesenchymal stem cells (hMSCs) from bone marrow of healthy volunteers
The experiment in a line: LL-37 secretion by cultured hMSCs with or without CFTR inhibition. Type of assay: cell-based. Here is the method: FIG. 11 illustrates that hMSCs and BMM cells secrete LL-37. hMSCs utilized in the animal models were cultured in vitro with and without the addition of 0.5 ug/ml LPS (n=5 preparations) with or without inhibition of CFTR with I-172 (10 ug/ml for 48 hours) and incubated for 24 hours. […] We used the student t-test for these analyses.
as §1

Each structure is given as a SMILES string.

T2 sequence (P13569 whole entry): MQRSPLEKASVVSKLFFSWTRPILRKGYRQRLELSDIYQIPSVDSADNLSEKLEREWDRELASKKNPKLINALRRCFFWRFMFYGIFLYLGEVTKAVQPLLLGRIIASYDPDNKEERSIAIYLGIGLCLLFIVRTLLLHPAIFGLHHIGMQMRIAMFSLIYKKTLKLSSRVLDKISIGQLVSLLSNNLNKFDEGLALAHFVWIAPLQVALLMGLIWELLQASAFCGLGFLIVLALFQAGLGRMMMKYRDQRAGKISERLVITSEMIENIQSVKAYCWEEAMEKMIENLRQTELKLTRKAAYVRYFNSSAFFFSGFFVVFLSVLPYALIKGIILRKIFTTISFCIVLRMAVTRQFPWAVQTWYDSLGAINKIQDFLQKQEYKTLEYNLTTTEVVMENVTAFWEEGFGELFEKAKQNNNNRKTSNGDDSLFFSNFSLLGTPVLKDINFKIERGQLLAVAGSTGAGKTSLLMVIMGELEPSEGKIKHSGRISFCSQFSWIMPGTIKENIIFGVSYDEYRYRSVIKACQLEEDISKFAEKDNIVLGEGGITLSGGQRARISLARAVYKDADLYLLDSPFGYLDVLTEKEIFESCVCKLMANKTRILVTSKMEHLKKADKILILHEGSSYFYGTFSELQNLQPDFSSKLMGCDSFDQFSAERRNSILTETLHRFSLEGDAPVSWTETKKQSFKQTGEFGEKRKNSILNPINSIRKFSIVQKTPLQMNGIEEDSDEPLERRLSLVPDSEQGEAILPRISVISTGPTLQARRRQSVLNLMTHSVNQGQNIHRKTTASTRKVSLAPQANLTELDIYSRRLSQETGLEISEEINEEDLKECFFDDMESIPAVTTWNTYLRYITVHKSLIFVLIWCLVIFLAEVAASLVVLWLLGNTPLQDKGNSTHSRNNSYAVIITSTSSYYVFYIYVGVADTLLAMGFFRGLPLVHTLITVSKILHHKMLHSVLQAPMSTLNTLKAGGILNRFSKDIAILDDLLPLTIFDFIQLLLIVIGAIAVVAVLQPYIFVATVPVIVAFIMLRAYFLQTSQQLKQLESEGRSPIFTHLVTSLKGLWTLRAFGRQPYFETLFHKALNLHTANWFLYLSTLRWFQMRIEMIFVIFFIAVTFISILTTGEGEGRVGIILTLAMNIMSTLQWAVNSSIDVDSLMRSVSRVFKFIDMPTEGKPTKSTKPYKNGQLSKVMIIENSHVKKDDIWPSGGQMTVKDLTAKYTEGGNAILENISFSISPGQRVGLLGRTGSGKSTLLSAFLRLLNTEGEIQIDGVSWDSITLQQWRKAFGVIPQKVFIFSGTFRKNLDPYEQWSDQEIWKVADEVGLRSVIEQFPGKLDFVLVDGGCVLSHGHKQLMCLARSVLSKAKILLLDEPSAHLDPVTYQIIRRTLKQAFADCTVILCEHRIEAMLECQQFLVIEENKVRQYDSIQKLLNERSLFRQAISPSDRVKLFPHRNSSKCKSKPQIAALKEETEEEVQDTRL
T1 sequence (P26361 whole entry): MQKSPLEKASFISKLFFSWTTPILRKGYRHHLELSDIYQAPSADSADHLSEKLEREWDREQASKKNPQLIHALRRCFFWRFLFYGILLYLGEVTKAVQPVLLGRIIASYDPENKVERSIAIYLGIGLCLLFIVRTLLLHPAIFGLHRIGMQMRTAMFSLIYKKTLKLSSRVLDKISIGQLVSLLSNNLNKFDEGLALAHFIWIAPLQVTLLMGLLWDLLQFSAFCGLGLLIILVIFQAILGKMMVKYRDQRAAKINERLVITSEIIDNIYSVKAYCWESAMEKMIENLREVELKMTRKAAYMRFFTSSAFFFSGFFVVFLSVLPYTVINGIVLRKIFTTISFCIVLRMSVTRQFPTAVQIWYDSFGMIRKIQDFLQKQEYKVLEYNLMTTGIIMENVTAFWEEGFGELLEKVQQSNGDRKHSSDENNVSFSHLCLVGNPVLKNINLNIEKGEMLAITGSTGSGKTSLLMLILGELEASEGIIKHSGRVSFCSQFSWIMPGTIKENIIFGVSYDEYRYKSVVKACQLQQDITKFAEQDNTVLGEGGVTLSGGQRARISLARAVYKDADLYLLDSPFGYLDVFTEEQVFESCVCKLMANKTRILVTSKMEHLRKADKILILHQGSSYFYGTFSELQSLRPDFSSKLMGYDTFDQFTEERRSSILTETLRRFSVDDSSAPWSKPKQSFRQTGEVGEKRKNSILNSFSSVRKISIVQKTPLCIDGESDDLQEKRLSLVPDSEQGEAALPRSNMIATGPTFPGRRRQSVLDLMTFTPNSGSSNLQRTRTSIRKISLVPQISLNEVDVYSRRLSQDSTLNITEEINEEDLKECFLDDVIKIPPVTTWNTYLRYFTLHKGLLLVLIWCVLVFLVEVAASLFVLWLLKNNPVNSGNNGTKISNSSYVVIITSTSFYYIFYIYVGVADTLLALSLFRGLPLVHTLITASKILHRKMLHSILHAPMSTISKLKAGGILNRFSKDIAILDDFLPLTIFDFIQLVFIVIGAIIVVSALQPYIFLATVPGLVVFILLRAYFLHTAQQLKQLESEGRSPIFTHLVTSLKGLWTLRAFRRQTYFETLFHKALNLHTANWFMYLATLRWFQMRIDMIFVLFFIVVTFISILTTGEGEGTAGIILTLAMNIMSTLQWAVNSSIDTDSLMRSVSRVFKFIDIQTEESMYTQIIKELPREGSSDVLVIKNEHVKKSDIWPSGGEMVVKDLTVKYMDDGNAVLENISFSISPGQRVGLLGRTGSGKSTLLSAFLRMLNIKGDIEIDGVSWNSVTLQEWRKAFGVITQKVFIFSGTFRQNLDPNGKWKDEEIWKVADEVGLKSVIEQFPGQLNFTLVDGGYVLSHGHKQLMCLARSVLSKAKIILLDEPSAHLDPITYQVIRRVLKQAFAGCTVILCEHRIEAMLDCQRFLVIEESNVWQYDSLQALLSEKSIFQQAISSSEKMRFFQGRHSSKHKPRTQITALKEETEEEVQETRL

With `O=C(O)c1ccc(/C=C2\SC(=S)N(c3cccc(C(F)(F)F)c3)C2=O)cc1` [I-172], the “less LL-37 secreted than BMC9 cells not cultured with I-172” value in assay [1] is given as 37±13%. The “amount of LL-37 after LPS stimulation” value in assay [2] (10 ug/ml for 48 hours then LPS, relative to LPS control) is recorded as “even further suppressed”. The “ability of hMSCs to secrete LL-37” value in assay [2] (10 ug/ml for 48 hours, relative to un-stimulated control) is “significantly reduced”.
